How the values were obtained:
[1] = tested on: ΔK280 tauRD-DsRed 293 cells; test: DsRed fluorescence (tau aggregation) in Tet-On ΔK280 tauRD-DsRed 293 cells, high content analysis; type: cell-based, human; conditions: for DsRed fluorescence intensity relative to untreated cells (100%): 10 μM, 8 h pre-treatment, doxycycline 3 days
Description: We used HEK-293 human cells expressing a DsRed-tagged proaggregation mutant (ΔK280) of the C-terminal repeat domain of tau (tauRD-Gln^244-Glu^372 of the longest tau^441 isoform). The recombinant tauRD-DsRed construct was under the control of a hybrid human cytomegalovirus (CMV)/TetO2 promoter that can be induced by adding doxycycline. The Tet-On ΔK280tauRD-DsRed293 cells were grown in medium containing blasticidin (5 μg/mL) and hygromycin (100 μg/mL) and were used for the following evaluation.
(§1) TauRD-DsRed 293 cells were plated into 96-well plates, grown for 24 h, and treated with 0.1, 1, 10 μM of congo red (a known tau aggregation inhibitor), compound (I), compound (II), and compound (III) (SB216763) for 8 h. Then doxycycline (Dox; 1 μg/mL) was added for 3 days and DsRed fluorescence was assessed using a high content analysis system (HCA) system (ImageXpressMICRO, Molecular Devices).
According to the fluorescence microscopy images of untreated cells, and cells treated with congo red, compound (I), compound (II), and SB216763, the quantification results are shown in FIG. 1 which were analyzed related to 100% fluorescence intensity of the untreated cells. […] Based on the results that described above, compound (I) and compound (II) have the ability to decrease tau-aggregation in tauRD-DsRed 293 cells (*p<0.05, **p<0.01).

[2] = Cytotoxicity in tauRD-DsRed 293 cells; type: cell-based; conditions: human, 50% of viability
Description: as §1
Also, IC50 cytotoxicity of tauRD-DsRed 293 cells is shown in FIG. 2, wherein the standard line represents 50% of viability.

Recombinant human GSK-3β = target: T1, Recombinant human GSK-3β (Homo sapiens, UniProt P49841); test: GSK-3β kinase activity, ADP-Glo Kinase Assay; type: biochemical
T1 construct: purchased Promega V1991
Description: GSK-3β kinase activity was measured in the presence of the tested compounds (I) and (II) using ADP-Glo™ Kinase Assay system (Promega). Recombinant human GSK-3β (Product code V1991, Promega) was used as the enzyme source, and the GSK-3β substrate was derived from human muscle glycogen synthase 1 peptide ([…](pS)EDEEE) which corresponded to a region of glycogen synthase that was phosphorylated by GSK-3β. Reactions were performed at 30° C. for 30 minutes in the 25 μL mixture that contained 25 μM ATP, 0.2 mg/mL GSK-3β substrate, 1 ng of GSK-3β, and serial dilutions of compound (I), compound (II), or compound (III). Kinase activity data were measured as relative light units (RLU) directly correlated with the amount of ADP produced.
The IC50 values of compound (I), compound (II), and compound (III) were determined by using SigmaPLOT software. […] When the concentration of compound (I) and compound (II) were […] μM, the residual activities of GSK-3β of compounds (I) and (II) were 36.1±1.1%, and 90.9±6.6%, respectively.

[3] = tested on: mouse hippocampal primary culture cells; test: Mouse hippocampal primary culture under tau toxicity induced by Wortmannin and GF 109203X; type: cell-based; conditions: 1 μM, 12 hours, with 10 nM Wortmannin and GF 109203X
Description: The mouse hippocampal primary culture cells were isolated from the hippocampi of C57BL/6J mouse embryos at days 16-18. On days in vitro (DIV) 4 and 7, 2 μM of cytosine arabinoside was added to the culture medium to reduce the glial cell populations. On DIV 9, the cells were treated with 10 nM of Wortmannin (WT) and GF 109203X (GFX) to induce tau hyperphosphorylation to mimic an AD condition.
1 μM of compound (I) or compound (II) were then added to the cells at DIV 9. Cells were harvested 12 hours later for immunocytochemical staining with NeuN (for neuron) and MAP2 (for neurite morphology) antibodies.
The quantification of neuron numbers (NeuN relative expression levels), neurite outgrowth, and the relative number of neuron branches are shown in FIG. 7 to FIG. 9 (*, vs. control; #, vs. WT+GFX. * p<0.05; **/##p<0.01; ###p<0.001). […] The results indicated significant neuronal protective effects of compound (I) and compound (II).

GSK-3β = test: Western blot of total GSK-3β and phosphorylated GSK-3β (Ser9) in tauRD-DsRed SH-SY5Y cells; type: cell-based, human; conditions: 10 μM
Description: We used human neuroblastoma cells (SH-SY5Y) expressing a DsRed-tagged proaggregation mutant (ΔK280) of the C-terminal repeat domain of tau (tauRD-Gln^244-Glu^372 of the longest tau^441 isoform). The recombinant tauRD-DsRed construct was under the control of a hybrid human cytomegalovirus (CMV)/TetO2 promoter that can be induced by adding doxycycline. The Tet-On ΔK280 tauRD-DsRed SH-SY5Y cells were grown in medium containing blasticidin (5 μg/mL) and hygromycin (100 μg/mL) and were then used for the following evaluation. […]
First, SH-SY5Y tauRD-DsRed cells were seeded in 6-well plates (1×10^5/well) in a medium containing all-trans retinoic acid ([…] Sigma) for inducing the neural differentiation. […] Next, immunoreactive bands were detected using horseradish peroxidase-conjugated goat anti-mouse, goat anti-rabbit, or donkey anti-goat IgG antibodies (1:5000; GeneTex) and chemiluminescent substrate (Millipore) for evaluating the expression levels thereof in cells.
The expression levels of total GSK-3β and phosphorylated GSK-3β are shown in FIG. 3 and the quantifications thereof are shown in FIG. 4 (*p<0.05, ***p<0.001). […]

T1 sequence (P49841 whole entry): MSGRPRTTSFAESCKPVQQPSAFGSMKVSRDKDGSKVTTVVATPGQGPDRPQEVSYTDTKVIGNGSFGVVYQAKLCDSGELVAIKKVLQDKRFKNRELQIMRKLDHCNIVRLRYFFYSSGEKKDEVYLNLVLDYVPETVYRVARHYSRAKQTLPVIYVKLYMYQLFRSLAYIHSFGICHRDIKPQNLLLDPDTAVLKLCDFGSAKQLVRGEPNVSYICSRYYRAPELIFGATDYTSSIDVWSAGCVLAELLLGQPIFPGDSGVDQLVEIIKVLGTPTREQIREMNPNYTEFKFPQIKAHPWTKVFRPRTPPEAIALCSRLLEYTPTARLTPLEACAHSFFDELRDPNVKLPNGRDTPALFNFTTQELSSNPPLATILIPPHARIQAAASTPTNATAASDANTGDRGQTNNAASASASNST

SMILES	effect on tauRD-DsRed fluorescence ([1]; 0.1, 1, 10 μM)	DsRed fluorescence intensity relative to untreated cells (100%) [1] [%]	IC50 [2] [µM]	remaining activity at 0.018 µM (Recombinant human GSK-3β; compound concentration 0.018 μM, read-out: residual activity of GSK-3β) [%]	IC50 (Recombinant human GSK-3β; recombinant human GSK-3β, 25 μM ATP, 30° C., 30 minutes) [µM]	neuronal protective effect (NeuN neuron number, neurite length, neurite branches) [3]	total GSK-3β expression vs untreated cells (GSK-3β)
CN1CC(C2=C(c3ccc(Cl)cc3Cl)C(=O)NC2=O)c2ccccc21 (centres unmarked) [compound (III), reference compound]	no effect						
Nc1c(/N=N/c2ccc(-c3ccc(/N=N/c4cc(S(=O)(=O)O)c5ccccc5c4N)cc3)cc2)cc(S(=O)(=O)O)c2ccccc12 [congo red]		110					
Cc1ccc(-c2cc(-c3ccncc3)nc3ccccc23)cc1 [compound (I)]		116	25.7	36.1 ± 1.1	0.0002	alleviate the reduction of neuronal survival rate, neurite length, and/or neurite branches	remained about the same without significant changes
